Measurements from US20030133958A1, “External agent for the skin and whitening agent” (priority 2000, published 2003).

What was measured:
B-16 melanoma cells [1] = test: Test for evaluating melanogenesis-inhibitory function (cell-whitening degree) in cell culture systems using B-16 melanoma cells; type: cell-based; parameters: key to Whitening degree: ++: The whitening degree is higher than that observed when adding 450 μg/mL of vitamin C-magnesium phosphate.; +: The whitening degree is almost identical to that observed when adding 450 μ g/mL of vitamin C-magnesium phosphate.; ±: The whitening degree is not higher than that observed when adding 450 μg/mL of vitamin C-magnesium phosphate, but higher than that of the control.; −: The whitening degree is almost identical to that observed for the control
Description: (§1) The B-16 melanoma cell is one having an ability of producing melanin and therefore, the cells naturally grown by cell culture blacken. If a substance capable of inhibiting melanogenesis is present in the cell growth system during the cell growth, the blackening of the cells is inhibited and they relatively whiten. Accordingly, the whitening effect of each candidate substance can be evaluated on the basis of the degree of whiteness observed when adding a test sample relative to the degree of blackness observed for a control. […] To evaluate this cytotoxicity, the cell survival rate observed when adding a test sample to the system is compared with that observed for the control. Thus, the substantial whitening effect can be evaluated on the basis of the results of these cell-whitening test and cytotoxicity test.
An example of such a method for evaluating the melanogenesis-inhibitory function in a cell culture system using B-16 melanoma cells comprises, for instance, the steps of dispensing 2 ml/well of a culture medium to each well of a 6-well plate, inoculating a desired amount of melanoma cells to the medium, cultivating the cells by allowing the medium to stand at 37° C. and a carbon dioxide concentration of 5%. On the following day, a solution of a test sample is added and mixed with the culture medium to a predetermined concentration and the cell cultivation is continued. After 5 days from the initiation of the cultivation, the culture medium is replaced with fresh one and the solution of the test sample is again added thereto. On the next day, the medium is removed to thus recover the cells, followed by washing them with PBS (phosphate-buffered saline) and the determination of the degree of whiteness to thus evaluate the whitening effect of the test sample. In this connection, the melanogenesis-inhibitory function is evaluated by comparing the results thus obtained with the degree of whiteness observed when the same procedures are repeated using the vitamin C-magnesium phosphate as a known whitening agent instead of the test sample solution (positive control) and that observed when the procedures are repeated without addition of any test sample (control).
A culture medium was dispensed to wells of a 6-well plate (2 mL/well each), followed by inoculation of a desired amount of B-16 melanoma cells on each well, allowing the wells to stand at 37° C. and 5% CO2 to thus cultivate the cells. On the day subsequent thereto, a sample solution prepared was added to the wells with stirring and the cultivation was continued. The culture medium was replaced with fresh one on the 5th day from the initiation of the cultivation and the sample solution was again added to the wells. On the next day, the culture medium was removed to recover the cells, followed by washing them with PBS (phosphate buffered physiological saline) and then evaluation of the cell-whitening degree In this respect, the melanogenesis-inhibitory function was evaluated by comparing the cell-whitening degree thus obtained with that observed when the same procedures used above were repeated except that vitamin C-magnesium phosphate as a known whitening agent (positive control) was substituted for the sample solution used above and that observed when the same procedures used above were repeated except that any sample was not added (control), according to the following evaluation criteria.
The evaluation criteria for the cell-whitening degree are as follows: […]

B-16 melanoma cells [2] = test: Cell-survival rate (cytotoxicity) in B-16 melanoma cell culture; type: cell-based
Description: as §1
The cell-survival rate at each added sample concentration can be determined according to the following formula
Cell-Survival Rate (%)=(A/B)×100
Wherein A represents the viable cell count observed for the system to which a sample is added and B represents the number of cells observed for the control system.

[3] = concentration 2 ppm, B-16 melanoma cells
[4] = concentration 4 ppm, B-16 melanoma cells
[5] = concentration 6 ppm, B-16 melanoma cells
[6] = concentration 8 ppm, B-16 melanoma cells
[7] = concentration 10 ppm, B-16 melanoma cells
[8] = concentration 15 ppm, B-16 melanoma cells
[9] = concentration 25 ppm, B-16 melanoma cells
[10] = concentration 50 ppm, B-16 melanoma cells
[11] = concentration 100 ppm, B-16 melanoma cells
[12] = concentration 200 ppm, B-16 melanoma cells
[13] = concentration 300 ppm, B-16 melanoma cells
[14] = concentration 400 ppm, B-16 melanoma cells

Molecule | Whitening degree (B-16 melanoma cells [1]; [3]) | Whitening degree (B-16 melanoma cells [1]; [4]) | Whitening degree (B-16 melanoma cells [1]; [5]) | Whitening degree (B-16 melanoma cells [1]; [6]) | Whitening degree (B-16 melanoma cells [1]; [7]) | Whitening degree (B-16 melanoma cells [1]; [8]) | Whitening degree (B-16 melanoma cells [1]; [9]) | Whitening degree (B-16 melanoma cells [1]; [10]) | other results
CC(=O)O[C@@H]1C[C@]2(C)[C@H]3CC=C4[C@@H]5CC(C)(C)CC[C@]5(C(=O)O)CC[C@@]4(C)[C@]3(C)CC[C@H]2C(C)(C)[C@H]1OC(C)=O [Compound of Synthesis 2, 2,3-O-Di-Acetyl-Maslinic Acid] | ± | ± | + | ++ | ++ | ++ |  |  | 
Ethyl Ester of 2,3-O-Di-Stearoyl-Maslinic Acid [Compound of Synthesis 4] | ± | ± | + | ++ | ++ | ++ |  |  | 
CC1(C)CC[C@]2(C(=O)O)CC[C@]3(C)C(=CC[C@@H]4[C@@]5(C)C[C@@H](O)[C@H](O)C(C)(C)[C@@H]5CC[C@]43C)[C@@H]2C1 [Purified maslinic acid 2, maslinic acid] | ± | + | ++ | ++ | ++ |  |  |  | Cell-Survival Rate (B-16 melanoma cells [2]; [3]): 100%; Cell-Survival Rate (B-16 melanoma cells [2]; [4]): 100%; Cell-Survival Rate (B-16 melanoma cells [2]; [5]): 100%; Cell-Survival Rate (B-16 melanoma cells [2]; [6]): 88%; Cell-Survival Rate (B-16 melanoma cells [2]; [7]): 69%; whitening effect, times that observed for vitamin C-magnesium phosphate (B-16 melanoma cells [1]; from Table 1, positive control vitamin C-magnesium phosphate 450 ppm): about 110 times; added concentration at which the whitening effect is almost identical to that of the positive control (B-16 melanoma cells [1]; positive control vitamin C-magnesium phosphate 450 ppm, B-16 melanoma cells): 4 ppm
O=c1cc(CO)occ1O [Kojic Acid, reference compound] |  |  |  |  | − | − | − | ± | Cell-Survival Rate (B-16 melanoma cells [2]; mouse, 10 ppm): 100%; Cell-Survival Rate (B-16 melanoma cells [2]; mouse, 15 ppm): 100%; Cell-Survival Rate (B-16 melanoma cells [2]; mouse, 25 ppm): 100%; Cell-Survival Rate (B-16 melanoma cells [2]; mouse, 50 ppm): 100%; Cell-Survival Rate (B-16 melanoma cells [2]; mouse, 100 ppm): 100%; Cell-Survival Rate (B-16 melanoma cells [2]; mouse, 200 ppm): 93%; Cell-Survival Rate (B-16 melanoma cells [2]; mouse, 300 ppm): 80%; Cell-Survival Rate (B-16 melanoma cells [2]; mouse, 450 ppm): 66%; Whitening degree (B-16 melanoma cells [1]; [11]): ±; Whitening degree (B-16 melanoma cells [1]; [12]): +; Whitening degree (B-16 melanoma cells [1]; [13]): ++; Whitening degree (B-16 melanoma cells [1]; [14]): ++
CCOC(=O)[C@]12CCC(C)(C)C[C@H]1C1=CC[C@@H]3[C@@]4(C)C[C@@H](O)[C@H](O)C(C)(C)[C@@H]4CC[C@@]3(C)[C@]1(C)CC2 [Compound of Synthesis 1, Ethyl Ester of Maslinic Acid] | ± | + | ++ | ++ | ++ |  |  |  | 
C=C(C)[C@@H]1CC[C@]2(C)CC[C@]3(C)[C@H](CC[C@@H]4[C@@]5(C)CC[C@H](O)C(C)(C)[C@@H]5CC[C@]43C)[C@@H]12 [lupeol, reference compound] |  |  |  |  |  |  |  |  | whitening effect (melanogenesis-inhibitory function), in words (B-16 melanoma cells [1]): never show any whitening effect
C=C(C)[C@@H]1CC[C@]2(C(=O)OCC)CC[C@]3(C)[C@H](CC[C@@H]4[C@@]5(C)CC[C@H](O)C(C)(C)[C@@H]5CC[C@]43C)[C@@H]12 [Compound of Synthesis 7, Ethyl Ester of Betulinic Acid] | − | ± | ± | ± | + | + | + | + | 
CC[Si](CC)(CC)OC(=O)[C@]12CCC(C)(C)C[C@H]1C1=CC[C@@H]3[C@@]4(C)C[C@@H](O[Si](CC)(CC)CC)[C@H](O[Si](CC)(CC)CC)C(C)(C)[C@@H]4CC[C@@]3(C)[C@]1(C)CC2 [Compound of Synthesis 3, Triethylsilyl Ester of 2,3-O-Di-Triethylsilyl-Maslinic Acid] | − | ± | ± | + | + | + | + | + | Cell-Survival Rate (B-16 melanoma cells [2]; [3]): 100%; Cell-Survival Rate (B-16 melanoma cells [2]; [4]): 100%; Cell-Survival Rate (B-16 melanoma cells [2]; [5]): 100%; Cell-Survival Rate (B-16 melanoma cells [2]; [6]): 100%; Cell-Survival Rate (B-16 melanoma cells [2]; [7]): 100%; Cell-Survival Rate (B-16 melanoma cells [2]; [8]): 100%; Cell-Survival Rate (B-16 melanoma cells [2]; [9]): 100%; Cell-Survival Rate (B-16 melanoma cells [2]; [10]): 94%
CC(=O)OCC12CCC(C)(C)CC1C1=CCC3C4(C)CCC(OC(C)=O)C(C)(C)C4CCC3(C)C1(C)CC2 (centres unmarked) [Compound of Synthesis 5, 3,28-O-Di-Acetyl-Erythrodiol] | ± | ± | ± | ± | ± | ± | + | + | 
C[C@H]1[C@H](C)CC[C@]2(C)CC[C@]3(C)C(=CC[C@@H]4[C@@]5(C)CC[C@H](O)C(C)(C)[C@@H]5CC[C@]43C)[C@H]12 [α-amyrin, reference compound] |  |  |  |  |  |  |  |  | whitening effect (melanogenesis-inhibitory function), in words (B-16 melanoma cells [1]): never show any whitening effect
C=C(C)[C@@H]1CC[C@]2(COC(C)=O)CC[C@]3(C)[C@H](CC[C@@H]4[C@@]5(C)CC[C@H](OC(C)=O)C(C)(C)[C@@H]5CC[C@]43C)[C@@H]12 [Compound of Synthesis 8, 3,28-O-Di-Acetyl-Betulin] | − | − | ± | ± | ± | + | + | + | 
OC[C@H]1O[C@@H](Oc2ccc(O)cc2)[C@H](O)[C@@H](O)[C@@H]1O [Arbutin, reference compound] |  |  |  |  | − | − | − | ± | Cell-Survival Rate (B-16 melanoma cells [2]; mouse, 10 ppm): 100%; Cell-Survival Rate (B-16 melanoma cells [2]; mouse, 15 ppm): 100%; Cell-Survival Rate (B-16 melanoma cells [2]; mouse, 25 ppm): 100%; Cell-Survival Rate (B-16 melanoma cells [2]; mouse, 50 ppm): 86%; Cell-Survival Rate (B-16 melanoma cells [2]; mouse, 100 ppm): 69%; Cell-Survival Rate (B-16 melanoma cells [2]; mouse, 200 ppm): 56%; Cell-Survival Rate (B-16 melanoma cells [2]; mouse, 300 ppm): 41%; Cell-Survival Rate (B-16 melanoma cells [2]; mouse, 450 ppm): 16%; Whitening degree (B-16 melanoma cells [1]; [11]): ±; Whitening degree (B-16 melanoma cells [1]; [12]): +; Whitening degree (B-16 melanoma cells [1]; [13]): ++; Whitening degree (B-16 melanoma cells [1]; [14]): ++
CC(=O)OC[C@]12CC[C@@H](C)[C@H](C)[C@H]1C1=CC[C@@H]3[C@@]4(C)CC[C@H](OC(C)=O)C(C)(C)[C@@H]4CC[C@@]3(C)[C@]1(C)CC2 [Compound of Synthesis 6, 3,28-O-Di-Acetyl-Uvaol] | − | − | − | ± | + | + | + | + | 
CC1(C)CC[C@]2(C(=O)O)CC[C@]3(C)C(=CC[C@@H]4[C@@]5(C)CC[C@H](O)C(C)(C)[C@@H]5CC[C@]43C)[C@@H]2C1 [oleanolic acid, reference compound] |  |  |  |  |  |  |  |  | whitening effect (melanogenesis-inhibitory function), in words (B-16 melanoma cells [1]): never show any whitening effect
CC1(C)CC[C@]2(C)CC[C@]3(C)C(=CC[C@@H]4[C@@]5(C)CC[C@H](O)C(C)(C)[C@@H]5CC[C@]43C)[C@@H]2C1 [β-amyrin, reference compound] |  |  |  |  |  |  |  |  | whitening effect (melanogenesis-inhibitory function), in words (B-16 melanoma cells [1]): never show any whitening effect
